Data taken from ChEMBL document CHEMBL5120838, “Synthesis and biological evaluation of geniposide derivatives as inhibitors of hyperuricemia, inflammatory and fibrosis” (Eur J Med Chem, 2022).

Target: Xanthine dehydrogenase/oxidase (Bos taurus, UniProt P80457)
Test: Inhibition of bovine XOD assessed as inhibition of uric acid formation using xanthine as substrate preincubated with enzyme for 5 mins followed by substrate addition and measured for 30 mins by microplate reader analysis

Sequence of Xanthine dehydrogenase/oxidase (P80457 whole entry): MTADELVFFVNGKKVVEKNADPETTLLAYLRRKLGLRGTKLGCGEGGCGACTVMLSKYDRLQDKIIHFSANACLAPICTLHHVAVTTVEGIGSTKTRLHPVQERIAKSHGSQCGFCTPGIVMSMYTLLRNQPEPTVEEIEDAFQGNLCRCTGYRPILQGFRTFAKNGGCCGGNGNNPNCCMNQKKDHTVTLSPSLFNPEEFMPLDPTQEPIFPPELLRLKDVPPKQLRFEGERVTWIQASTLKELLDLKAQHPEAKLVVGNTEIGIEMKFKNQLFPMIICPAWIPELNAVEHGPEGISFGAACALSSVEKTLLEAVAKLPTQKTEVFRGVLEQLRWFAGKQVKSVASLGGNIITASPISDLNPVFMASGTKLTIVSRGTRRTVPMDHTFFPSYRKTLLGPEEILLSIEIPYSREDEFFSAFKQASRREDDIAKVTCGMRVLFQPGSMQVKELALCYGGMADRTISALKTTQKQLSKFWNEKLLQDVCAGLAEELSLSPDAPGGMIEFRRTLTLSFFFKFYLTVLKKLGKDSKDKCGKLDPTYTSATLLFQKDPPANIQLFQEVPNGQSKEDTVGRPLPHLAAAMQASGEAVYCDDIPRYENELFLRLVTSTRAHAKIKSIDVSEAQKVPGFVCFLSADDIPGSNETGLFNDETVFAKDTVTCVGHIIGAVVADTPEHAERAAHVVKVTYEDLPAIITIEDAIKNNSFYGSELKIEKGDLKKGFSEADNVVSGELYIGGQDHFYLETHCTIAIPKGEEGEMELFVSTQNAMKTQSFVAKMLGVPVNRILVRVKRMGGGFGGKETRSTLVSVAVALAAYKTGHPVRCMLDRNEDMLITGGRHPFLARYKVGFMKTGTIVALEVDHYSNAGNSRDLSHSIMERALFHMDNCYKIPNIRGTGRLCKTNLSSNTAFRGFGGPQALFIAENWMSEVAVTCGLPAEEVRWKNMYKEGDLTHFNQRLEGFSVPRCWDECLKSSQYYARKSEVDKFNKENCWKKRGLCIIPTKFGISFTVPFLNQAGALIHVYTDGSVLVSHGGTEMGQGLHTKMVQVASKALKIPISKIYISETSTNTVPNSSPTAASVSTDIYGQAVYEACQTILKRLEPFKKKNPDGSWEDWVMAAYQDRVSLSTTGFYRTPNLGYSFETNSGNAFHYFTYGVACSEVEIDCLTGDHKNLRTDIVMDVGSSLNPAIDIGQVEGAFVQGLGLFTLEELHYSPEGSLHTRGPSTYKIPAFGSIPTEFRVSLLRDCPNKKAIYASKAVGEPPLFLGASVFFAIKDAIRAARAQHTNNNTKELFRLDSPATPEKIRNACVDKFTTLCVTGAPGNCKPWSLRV

SMILES | IC50
CCCC(=O)OCC1=CC[C@@H]2C(C(=O)O)=CO[C@@H](O[C@@H]3O[C@H](COC(=O)CCC)[C@@H](OC(=O)CCC)[C@H](OC(=O)CCC)[C@H]3OC(=O)CCC)[C@H]12 | 55.7 µM
COC(=O)C1=COC(OC(=O)NCCCCl)[C@@H]2C(COC(=O)NCCCCl)=CC[C@H]12 (stereo not given in full) | 48.8 µM
CC(=O)OCC1=CC[C@@H]2C(C(=O)Oc3ccncc3)=CO[C@@H](O[C@@H]3O[C@H](COC(C)=O)[C@@H](OC(C)=O)[C@H](OC(C)=O)[C@H]3OC(C)=O)[C@H]12 | 9.15 µM
CC(=O)OCC1=CC[C@@H]2C(C(=O)On3cccn3)=CO[C@@H](O[C@@H]3O[C@H](COC(C)=O)[C@@H](OC(C)=O)[C@H](OC(C)=O)[C@H]3OC(C)=O)[C@H]12 | 8.74 µM
CCC(=O)OCC1=CC[C@@H]2C(C(=O)O)=CO[C@@H](O[C@@H]3O[C@H](COC(=O)CC)[C@@H](OC(=O)CC)[C@H](OC(=O)CC)[C@H]3OC(=O)CC)[C@H]12 | 48.8 µM
CC(=O)OCC1=CC[C@@H]2C(C(=O)Nc3ccc(C(=O)NCC(=O)O)cc3)=CO[C@@H](O[C@@H]3O[C@H](COC(C)=O)[C@@H](OC(C)=O)[C@H](OC(C)=O)[C@H]3OC(C)=O)[C@H]12 | 73.6 µM
COC(=O)C1=COC(OC(=O)Nc2ccccc2Br)[C@@H]2C(COC(=O)Nc3ccccc3Br)=CC[C@H]12 (stereo not given in full) | 23.9 µM
CC(=O)OCC1=CC[C@@H]2C(C(=O)Oc3cccc(C#N)c3)=CO[C@@H](O[C@@H]3O[C@H](COC(C)=O)[C@@H](OC(C)=O)[C@H](OC(C)=O)[C@H]3OC(C)=O)[C@H]12 | 5.15 µM
CC(=O)OCC1=CC[C@@H]2C(C(=O)NCc3ccncc3)=CO[C@@H](O[C@@H]3O[C@H](COC(C)=O)[C@@H](OC(C)=O)[C@H](OC(C)=O)[C@H]3OC(C)=O)[C@H]12 | 36.6 µM
CC(=O)OCC1=CC[C@@H]2C(C(=O)Nc3nn[nH]n3)=CO[C@@H](O[C@@H]3O[C@H](COC(C)=O)[C@@H](OC(C)=O)[C@H](OC(C)=O)[C@H]3OC(C)=O)[C@H]12 | 63.9 µM
O=C(O)C1=CO[C@@H](O[C@@H]2O[C@H](CO)[C@@H](O)[C@H](O)[C@H]2O)[C@@H]2C(CO)=CC[C@H]12 [GENIPOSIDIC ACID] | 62.2 µM
CC(=O)OCC1=CC[C@@H]2C(C(=O)Nc3ccccc3-c3ccccc3)=CO[C@@H](O[C@@H]3O[C@H](COC(C)=O)[C@@H](OC(C)=O)[C@H](OC(C)=O)[C@H]3OC(C)=O)[C@H]12 | 75.5 µM
CC(=O)OCC1=CC[C@@H]2C(C(=O)O)=CO[C@@H](O[C@@H]3O[C@H](COC(C)=O)[C@@H](OC(C)=O)[C@H](OC(C)=O)[C@H]3OC(C)=O)[C@H]12 | 35.3 µM
CC(=O)OCC1=CC[C@@H]2C(C(=O)Oc3cncc4ccccc34)=CO[C@@H](O[C@@H]3O[C@H](COC(C)=O)[C@@H](OC(C)=O)[C@H](OC(C)=O)[C@H]3OC(C)=O)[C@H]12 | 30.7 µM
COC(=O)C1=CO[C@@H](O[C@@H]2O[C@H](CO)[C@@H](O)[C@H](O)[C@H]2O)[C@H]2[C@@H]1CC1OC12CO (stereo not given in full) | 165 µM
CC(=O)OCC1=CC[C@@H]2C(C(=O)NCCC#N)=CO[C@@H](O[C@@H]3O[C@H](COC(C)=O)[C@@H](OC(C)=O)[C@H](OC(C)=O)[C@H]3OC(C)=O)[C@H]12 | 15.8 µM
COC(=O)C1=COC(OC(=O)Nc2ccc(C)cc2)[C@@H]2C(COC(=O)Nc3ccc(C)cc3)=CC[C@H]12 (stereo not given in full) | 73.6 µM
CC(=O)OCC1=CC[C@@H]2C(C(=O)Sc3cccs3)=CO[C@@H](O[C@@H]3O[C@H](COC(C)=O)[C@@H](OC(C)=O)[C@H](OC(C)=O)[C@H]3OC(C)=O)[C@H]12 | 22.8 µM
CC(=O)OCC1=CC[C@@H]2C(C(=O)SC3=NCCS3)=CO[C@@H](O[C@@H]3O[C@H](COC(C)=O)[C@@H](OC(C)=O)[C@H](OC(C)=O)[C@H]3OC(C)=O)[C@H]12 | 12.6 µM
CC(C)CC(=O)OCC1=CC[C@@H]2C(C(=O)O)=CO[C@@H](O[C@@H]3O[C@H](COC(=O)CC(C)C)[C@@H](OC(=O)CC(C)C)[C@H](OC(=O)CC(C)C)[C@H]3OC(=O)CC(C)C)[C@H]12 | 69.7 µM
